Experimental data: PMC7153278, “Discovery of Membrane-Bound Pyrophosphatase Inhibitors Derived from an Isoxazole Fragment” (ACS Medicinal Chemistry Letters, 2020)

Experiment: Colloidal aggregation under TmPPase assay conditions (nephelometry)
Type: physicochemical
Description: Aggregation data for 5, 12k and 12l (Figure S1)
Potential colloidal aggregation in the TmPPase model system was studied at five concentrations (50 µM, 25 µM, 10 µM, 5 µM, and 1 µM). The original assay conditions were simulated, and the light scattering of potential aggregates in the mixture was studied by nephelometric methods using Nepheloskan Ascent® (Labsystems, Finland). Aggregation of the blank and compounds 5, 12k and 12l were measured as triplicates from one independent experiment at three different voltages (300 V, 400 V and 500 V) at room temperature.
5 µM and 1 µM concentrations the obtained values were close to those observed by the blank, thereby […]
Figure S1. Aggregation data for compounds 5, 12k and 12l. The data, measured in relative nephelometric units (RNU), is shown as the mean ± SD and normalized to the blank.
(1 picture or pasted object on this page, not shown here)
Experimental procedures and characterization data
Commercial analogues were retrieved by screening the ZINC12 database1 (clean drug-like subset; downloaded on 27.04.2016) using a KNIME2 workflow connected to the RDKit3 nodes. The SAR analyses and docking studies (data not shown) underlying this work were conducted using the Schrödinger molecular modeling platform (Canvas and Glide modules, respectively)4 .
Compounds 1–7, 13–20 and 24 were obtained from commercial suppliers. Supporting Information, Table S1 summarizes the compounds tested. Compound purity was >95% as determined by LC-MS and characterized by HRMS. For all commercial compounds after the initial screen, purity was tested independently from the vendor specification (a few compounds of lower purity are reported only in Supporting Information). To evaluate potential aggregation of samples in the TmPPase based assay, aggregate formation in the assay conditions was studied at five concentrations (50 μM, 25 μM, 10 μM, 5 μM, and 1 μM) for compounds 5, 12k and 12l (Figure S1).
All chemicals used were commercially available. Reactions using anhydrous conditions were conducted in oven-dried (130 °C, >24 h) glassware, purged with argon prior to use. Microwave reactions were performed using a Biotage Initiator+ instrument (Uppsala, Sweden). The progress of the reactions was monitored by thin-layer chromatography on silica gel 60-F254 aluminum plates and visualized by using a dual short/long wave (254/366 nm) UV lamp. The combined organic solutions from extractions were dried over anhydrous Na2SO4, filtered and concentrated with a rotary evaporator at reduced pressure. Flash SiO2 column chromatography was performed with automated high performance flash chromatography, Biotage Isolera™ Spektra Systems with ACI™ and Assist (ISO-1SW Isolera One) equipped with a variable UV-VIS (200–800 nm) photodiode array (Uppsala, Sweden) using SNAP KP-SIL/Ultra 10 g or 25 g cartridges and the indicated mobile phase gradient.
The reactions were not optimized and all the yields are given for purified products.
Characterization of the synthesized products were done by NMR and MS analysis. 1H and 13C NMR spectra were acquired at 298 K on a Bruker Ascend 400 MHz – Avance III HD NMR spectrometer (Bruker Corporation, Billerica, MA, USA). Chemical shifts (δ) are reported in parts per million (ppm) relative to the residual solvent signals: CDCl3 7.26 and 77.16 ppm, CD3OD 3.31 and 49.00 ppm, DMSO-d6 2.50 and 39.52 ppm for 1H and 13C NMR, respectively. […] High resolution mass (HRMS-ESI) data was reported for the calculated and experimentally […]

CC(C)(C)c1cc(-c2cc(C(=O)Oc3ccccc3Br)no2)cc(C(C)(C)C)c1 [Compound 12l]
aggregation (light scattering) (at 10 µM, 5 µM and 1 µM): only minor/no detectable aggregation | aggregation (light scattering) (at 50 µM and 25 µM): showed aggregate formation
